The supplement of paper PMC10307832

Key:
Experiment in all cases: relative viability (nuclei count vs DMSO), 5 days (fraction); higher = more cells survive
[1] = system: NCI-H1666
How it was run: (§1)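 Lung cancer cell lines, seeded in 1536-well plates, were treated the following day by pin tool with a single drug or with five library-drug doses (not always all listed) in √10 steps on top of a fixed anchor-drug dose. Cells were fixed and nuclei stained in one step after 5 days, and nuclei were counted. Relative viability is the nuclei count for treated wells divided by that for vehicle wells, reported as medians of duplicate plates.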

[2] = system: NCI-H2087
How it was run: as §1

[3] = system: NCI-H23
How it was run: as §1

[4] = system: BEN
How it was run: as §1

[5] = system: NCI-H2009
How it was run: as §1

[6] = system: HARA
How it was run: as §1

[7] = system: NCI-H2023
How it was run: as §1

[8] = system: NCI-H441
How it was run: as §1

[9] = system: NCI-H3122
How it was run: as §1

[10] = system: NCI-H2347
How it was run: as §1

[11] = system: NCI-H647
How it was run: as §1

[12] = system: NCI-H2126
How it was run: as §1

[13] = system: NCI-H727
How it was run: as §1

[14] = system: NCI-H650
How it was run: as §1

[15] = system: NCI-H838
How it was run: as §1

[16] = system: NCI-H1993
How it was run: as §1

[17] = system: 201T
How it was run: as §1

[18] = system: NCI-H596
How it was run: as §1

[19] = system: EMC-BAC-2
How it was run: as §1

[20] = system: LOU-NH91
How it was run: as §1

[21] = system: NCI-H1395
How it was run: as §1

[22] = system: LCLC-103H
How it was run: as §1

[23] = system: HCC-44
How it was run: as §1

In the case of `Clc1ccc(Nc2nnc(Cc3ccncc3)c3ccccc23)cc1` [Vatalanib] + CS(=O)(=O)N1CCN(Cc2cc3nc(-c4cccc5[nH]ncc45)nc(N4CCOCC4)c3s2)CC1 [Pictilisib] (partner 1 µM), the relative viability ([1]; first compound 0.04 µM) is reported as 0.538, the relative viability ([1]; first compound 0.1265 µM) is reported as 0.334 and the relative viability ([1]; first compound 0.4 µM) is reported as 0.33. For the same compound, the relative viability ([1]; first compound 1.265 µM) was 0.512, the relative viability ([1]; first compound 4 µM) was 0.499 and the relative viability ([2]; first compound 0.04 µM) was 0.871. The relative viability ([2]; first compound 0.1265 µM) was 0.752, the relative viability ([2]; first compound 0.4 µM) was 1.15 and the relative viability ([2]; first compound 1.265 µM) was 0.826. It also gave a relative viability ([2]; first compound 4 µM) of 0.931, a relative viability ([3]; first compound 0.04 µM) of 0.45 and a relative viability ([3]; first compound 0.1265 µM) of 0.412. It also gave a relative viability ([3]; first compound 0.4 µM) of 0.511, a relative viability ([3]; first compound 1.265 µM) of 0.436 and a relative viability ([3]; first compound 4 µM) of 0.552. The relative viability ([4]; first compound 0.04 µM) was 0.552, the relative viability ([4]; first compound 0.1265 µM) was 0.495 and the relative viability ([4]; first compound 0.4 µM) was 0.529. It also gave a relative viability ([4]; first compound 1.265 µM) of 0.555, a relative viability ([4]; first compound 4 µM) of 0.65 and a relative viability ([5]; first compound 0.04 µM) of 0.977. For the same compound, the relative viability ([5]; first compound 0.1265 µM) was 0.656, the relative viability ([5]; first compound 0.4 µM) was 0.833 and the relative viability ([5]; first compound 1.265 µM) was 0.798. The relative viability ([5]; first compound 4 µM) was 0.885, the relative viability ([6]; first compound 0.04 µM) was 0.555 and the relative viability ([6]; first compound 0.1265 µM) was 0.414. It also gave a relative viability ([6]; first compound 0.4 µM) of 0.351, a relative viability ([6]; first compound 1.265 µM) of 0.454 and a relative viability ([6]; first compound 4 µM) of 0.369. For the same compound, the relative viability ([7]; first compound 0.04 µM) was 0.252, the relative viability ([7]; first compound 0.1265 µM) was 0.255 and the relative viability ([7]; first compound 0.4 µM) was 0.318. The relative viability ([7]; first compound 1.265 µM) was 0.218, the relative viability ([7]; first compound 4 µM) was 0.226 and the relative viability ([8]; first compound 0.04 µM) was 0.561. The relative viability ([8]; first compound 0.1265 µM) was 0.4, the relative viability ([8]; first compound 0.4 µM) was 0.592 and the relative viability ([8]; first compound 1.265 µM) was 0.474. For the same compound, the relative viability ([8]; first compound 4 µM) was 0.501, the relative viability ([9]; first compound 0.04 µM) was 0.66 and the relative viability ([9]; first compound 0.1265 µM) was 0.534. The relative viability ([9]; first compound 0.4 µM) was 0.646, the relative viability ([9]; first compound 1.265 µM) was 0.573 and the relative viability ([9]; first compound 4 µM) was 0.593. For the same compound, the relative viability ([10]; first compound 0.04 µM) was 0.709, the relative viability ([10]; first compound 0.1265 µM) was 0.723 and the relative viability ([10]; first compound 0.4 µM) was 0.409. The relative viability ([10]; first compound 1.265 µM) was 0.92, the relative viability ([10]; first compound 4 µM) was 0.319 and the relative viability ([11]; first compound 0.04 µM) was 0.387. The relative viability ([11]; first compound 0.1265 µM) was 0.42, the relative viability ([11]; first compound 1.265 µM) was 0.385 and the relative viability ([11]; first compound 4 µM) was 0.4. The relative viability ([12]; first compound 0.04 µM) was 0.488, the relative viability ([12]; first compound 0.1265 µM) was 0.512 and the relative viability ([12]; first compound 0.4 µM) was 0.524. For the same compound, the relative viability ([12]; first compound 1.265 µM) was 0.47, the relative viability ([12]; first compound 4 µM) was 0.494 and the relative viability ([13]; first compound 0.04 µM) was 0.421. It also gave a relative viability ([13]; first compound 0.1265 µM) of 0.355, a relative viability ([13]; first compound 0.4 µM) of 0.359 and a relative viability ([13]; first compound 1.265 µM) of 0.399. It also gave a relative viability ([13]; first compound 4 µM) of 0.433, a relative viability ([14]; first compound 0.04 µM) of 0.875 and a relative viability ([14]; first compound 0.1265 µM) of 0.914. The relative viability ([14]; first compound 1.265 µM) was 0.868, the relative viability ([14]; first compound 4 µM) was 0.909 and the relative viability ([15]; first compound 0.04 µM) was 0.477. For the same compound, the relative viability ([15]; first compound 0.1265 µM) was 0.41, the relative viability ([15]; first compound 0.4 µM) was 0.518 and the relative viability ([15]; first compound 1.265 µM) was 0.453. The relative viability ([15]; first compound 4 µM) was 0.467, the relative viability ([16]; first compound 0.04 µM) was 0.782 and the relative viability ([16]; first compound 0.1265 µM) was 0.898. The relative viability ([16]; first compound 0.4 µM) was 0.847, the relative viability ([16]; first compound 1.265 µM) was 0.816 and the relative viability ([16]; first compound 4 µM) was 0.887. For the same compound, the relative viability ([17]; first compound 0.04 µM) was 0.694, the relative viability ([17]; first compound 0.1265 µM) was 0.667 and the relative viability ([17]; first compound 0.4 µM) was 0.706. For the same compound, the relative viability ([17]; first compound 1.265 µM) was 0.663, the relative viability ([17]; first compound 4 µM) was 0.722 and the relative viability ([18]; first compound 0.04 µM) was 0.347. For the same compound, the relative viability ([18]; first compound 0.1265 µM) was 0.353, the relative viability ([18]; first compound 0.4 µM) was 0.392 and the relative viability ([18]; first compound 1.265 µM) was 0.371. For the same compound, the relative viability ([18]; first compound 4 µM) was 0.393, the relative viability ([19]; first compound 0.04 µM) was 0.559 and the relative viability ([19]; first compound 0.1265 µM) was 0.556. It also gave a relative viability ([19]; first compound 0.4 µM) of 0.572, a relative viability ([19]; first compound 1.265 µM) of 0.533 and a relative viability ([19]; first compound 4 µM) of 0.525. The relative viability ([20]; first compound 0.04 µM) was 0.512, the relative viability ([20]; first compound 0.1265 µM) was 0.541 and the relative viability ([20]; first compound 0.4 µM) was 0.461. The relative viability ([20]; first compound 1.265 µM) was 0.503, the relative viability ([20]; first compound 4 µM) was 0.517 and the relative viability ([21]; first compound 0.04 µM) was 0.814. It also gave a relative viability ([21]; first compound 0.1265 µM) of 0.55, a relative viability ([21]; first compound 0.4 µM) of 0.525 and a relative viability ([21]; first compound 1.265 µM) of 0.538. The relative viability ([21]; first compound 4 µM) was 0.616, the relative viability ([22]; first compound 0.04 µM) was 0.6 and the relative viability ([22]; first compound 0.1265 µM) was 0.606. For the same compound, the relative viability ([22]; first compound 0.4 µM) was 0.55, the relative viability ([22]; first compound 1.265 µM) was 0.596 and the relative viability ([22]; first compound 4 µM) was 0.714. For the same compound, the relative viability ([23]; first compound 0.04 µM) was 0.704, the relative viability ([23]; first compound 0.1265 µM) was 0.684 and the relative viability ([23]; first compound 0.4 µM) was 0.63. It also gave a relative viability ([23]; first compound 1.265 µM) of 0.644 and a relative viability ([23]; first compound 4 µM) of 0.613.
